Assay results reported in paper PMC2697668 (Organic letters, 2009).

Target: recombinant yeast Hsp90
Assay: ATPase inhibition assay
Format: biochemical, Saccharomyces cerevisiae
Details: read-out: ATPase; incubated with ATP

IC50: 400 nM
Structure (SMILES): C[C@@H]1C[C@H]2O[C@@H]2/C=C\C=C\C(=O)Cc2c(Cl)c(O)cc(O)c2C(=O)O1 [RDC]
